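Growth conditions: 96-well plates. Treatment: test compound, 48 hours, 5 concentrations. Analysis: linear interpolation between bracketing concentrations; unreached endpoints set to highest concentration. GI50: concentration for 50% inhibition of growth.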 Activity calls are given as the source filed them. Cut-off read from the data, not from the text of the source: active = GI50 up to about 1.1 µM and inactive = higher.
Assays:
Test in all cases: NCI-60 cell line screen, 48 h
UACC-62 = test system: UACC-62
BT-549 = test system: BT-549
KM12 = test system: KM12
SNB-75 = test system: SNB-75
M14 = test system: M14
K562 = test system: K562
NCI-H460 = test system: NCI-H460
SNB-19 = test system: SNB-19
NCI-H23 = test system: NCI-H23
RPMI-8226 = test system: RPMI-8226
SW-620 = test system: SW-620
CAKI-1 = test system: CAKI-1
SF-268 = test system: SF-268
NCI/ADR-RES = test system: NCI/ADR-RES
HOP-92 = test system: HOP-92
SK-MEL-28 = test system: SK-MEL-28
UACC-257 = test system: UACC-257
CCRF-CEM = test system: CCRF-CEM
HCT-15 = test system: HCT-15
Malme-3M = test system: Malme-3M

Structure (SMILES) | GI50 (UACC-62) | GI50 (BT-549) | GI50 (KM12) | GI50 (SNB-75) | GI50 (M14) | GI50 (K562) | GI50 (NCI-H460) | GI50 (SNB-19) | GI50 (NCI-H23) | GI50 (RPMI-8226) | GI50 (SW-620) | GI50 (CAKI-1) | GI50 (SF-268) | GI50 (NCI/ADR-RES) | GI50 (HOP-92) | GI50 (SK-MEL-28) | GI50 (UACC-257) | GI50 (CCRF-CEM) | GI50 (HCT-15) [µM] | GI50 (Malme-3M)
N#Cc1ccc(-n2c3ccccc3c3ccc4c(c32)C(=O)C=CC4=O)cc1 | 6.25 µM (inactive) | 12.2 µM (inactive) | 10.2 µM (inactive) | 18.2 µM (inactive) | 2.68 µM (inactive) | 1.29 µM (inactive) | 21.6 µM (inactive) | 10.1 µM (inactive) | 6.89 µM (inactive) | 3.72 µM (inactive) | 1.92 µM (inactive) | 1.38 µM (inactive) | 2.62 µM (inactive) | 10.9 µM (inactive) | 1.52 µM (inactive) | 2.88 µM (inactive) | 4.67 µM (inactive) | 0.409 µM (active) | 4.49 | 
COC12OC3(C4OC41)C(C(=O)O[C@H]3CO[Si](C)(C)C(C)(C)C)C2S(=O)(=O)c1ccccc1 (stereo partly specified) | > 4.65 µM (inactive) | > 49.9 µM (inactive) |  |  |  | 1.6 µM (inactive) | > 62.1 µM (inactive) |  | > 100 µM (inactive) | 1.67 µM (inactive) | 1.52 µM (inactive) | 2.71 µM (inactive) |  | > 100 µM (inactive) | 3.27 µM (inactive) | 3.48 µM (inactive) | > 4.65 µM (inactive) | 0.597 µM (active) | 3.16 | > 41.8 µM (inactive)
c1ccc2c(c1)cc1ccc3cccc4ccc2c1c34 | 67.9 µM (inactive) | > 100 µM (inactive) | 26.2 µM (inactive) | > 100 µM (inactive) | > 100 µM (inactive) | > 100 µM (inactive) | > 100 µM (inactive) | 81.1 µM (inactive) | > 100 µM (inactive) | > 100 µM (inactive) | > 100 µM (inactive) | > 100 µM (inactive) | > 100 µM (inactive) | > 100 µM (inactive) | > 100 µM (inactive) | > 100 µM (inactive) | > 100 µM (inactive) | > 100 µM (inactive) | 6.05 | 
O=C1c2ccccc2C2(c3ccc(F)cc3)NCCN12 (stereo unspecified) | > 100 µM (inactive) | > 100 µM (inactive) | > 100 µM (inactive) | > 100 µM (inactive) | > 100 µM (inactive) | > 100 µM (inactive) | > 100 µM (inactive) | > 100 µM (inactive) | > 100 µM (inactive) | > 100 µM (inactive) | > 100 µM (inactive) | > 100 µM (inactive) | > 100 µM (inactive) | > 100 µM (inactive) |  | > 100 µM (inactive) | > 100 µM (inactive) | > 100 µM (inactive) | > 100 | > 100 µM (inactive)
O=C(Cn1nnc(-c2ccccc2)n1)N/N=C/c1cn(Cc2ccc(Cl)cc2Cl)c2ccccc12 | > 100 µM (inactive) | > 100 µM (inactive) | > 100 µM (inactive) | 45.1 µM (inactive) | > 100 µM (inactive) | > 100 µM (inactive) | > 100 µM (inactive) | > 100 µM (inactive) | > 100 µM (inactive) | > 100 µM (inactive) | 58.3 µM (inactive) | > 100 µM (inactive) | 31.8 µM (inactive) | > 100 µM (inactive) | > 100 µM (inactive) |  | > 100 µM (inactive) | 44.1 µM (inactive) | > 100 | 
CC(C)(C)OC(=O)C1/C(=C/CBr)CN1C(=O)OC(C)(C)C (stereo unspecified) | 15.3 µM (inactive) | 16.7 µM (inactive) |  |  | 16.6 µM (inactive) | 2.73 µM (inactive) | 16.7 µM (inactive) | 17.6 µM (inactive) | 10.5 µM (inactive) | 3.98 µM (inactive) | 5 µM (inactive) | 16.5 µM (inactive) | 4.85 µM (inactive) | 22.8 µM (inactive) | 13.9 µM (inactive) | 17.7 µM (inactive) | 16.3 µM (inactive) | 2.64 µM (inactive) | 8.67 | 18 µM (inactive)
CC(CN(C)C)C(=O)c1ccccc1C(=O)O (stereo unspecified) | 20.1 µM (inactive) | 9.59 µM (inactive) | 30.5 µM (inactive) |  | 26.4 µM (inactive) | 30.9 µM (inactive) |  | 39.2 µM (inactive) | 26.5 µM (inactive) | 18.5 µM (inactive) | 29.3 µM (inactive) | 28.2 µM (inactive) | 14.1 µM (inactive) | 29.1 µM (inactive) | 41.9 µM (inactive) | 31.2 µM (inactive) |  | 10.1 µM (inactive) | 31.6 | 22 µM (inactive)
CC(C)(C)NC(=O)/C(=C\Sc1ccccc1)c1ccc2c(c1)OCO2 | 19.8 µM (inactive) | 75.9 µM (inactive) | 32.4 µM (inactive) |  | 21.8 µM (inactive) | 43.6 µM (inactive) |  | 38.7 µM (inactive) | 35.3 µM (inactive) | 22.8 µM (inactive) | 37.8 µM (inactive) | 38.4 µM (inactive) | 16.2 µM (inactive) | 24.2 µM (inactive) | 15.5 µM (inactive) | 49 µM (inactive) | 25.4 µM (inactive) | 28.5 µM (inactive) | 30.8 | 
Clc1ccc(C2=NN=C3C(c4ccccc4)=Nc4ccccc4N3C2)cc1 | 5.3 µM (inactive) | 12.1 µM (inactive) | 6.82 µM (inactive) |  | 2.79 µM (inactive) | 2.88 µM (inactive) | 1.38 µM (inactive) | 11.7 µM (inactive) | 16.3 µM (inactive) | 2.63 µM (inactive) | 5.45 µM (inactive) | 7.19 µM (inactive) | 2.88 µM (inactive) | 4.48 µM (inactive) | > 25.1 µM (inactive) | 37.5 µM (inactive) | 5.73 µM (inactive) | 2.03 µM (inactive) | 4.73 | 5.45 µM (inactive)
CC(C)(C)N(Cc1ccc2c(c1)OCO2)C(=O)/C=C\Sc1ccccc1 | > 100 µM (inactive) | 42.6 µM (inactive) | 81.8 µM (inactive) |  | 77.1 µM (inactive) | 42.9 µM (inactive) |  | > 100 µM (inactive) | > 100 µM (inactive) | 30.3 µM (inactive) | 99.8 µM (inactive) | > 100 µM (inactive) |  | 89.5 µM (inactive) | 14.2 µM (inactive) | > 100 µM (inactive) | 71.1 µM (inactive) | 43.5 µM (inactive) | 63.8 | 
Cc1cc(C)cc(Nc2nnc3n2S(=O)(=O)c2cc(C)c(Cl)cc2S3)c1 | 5.65 µM (inactive) | 4.22 µM (inactive) | 8.38 µM (inactive) | 3.87 µM (inactive) | 8.09 µM (inactive) | 3.01 µM (inactive) | 4.29 µM (inactive) | 4.3 µM (inactive) | 2.96 µM (inactive) | 2.88 µM (inactive) | 3.45 µM (inactive) | 7.11 µM (inactive) | 3.81 µM (inactive) | 2.99 µM (inactive) |  | 17.6 µM (inactive) | 4.35 µM (inactive) | 0.313 µM (active) | 4.37 | 1.87 µM (inactive)
